By IC50 is commonly meant the concentration needed to halve the response being measured.

Drawing on patent publication US11753411B2, “Substituted pyrazolo[1,5-a]pyrimidines as TYK2 pseudokinase ligands” (Ventyx Biosciences, Inc., priority 2019, dated 2023), this text covers IC50 for 24 compounds.

For this assay, the system named is IFN-a/Jak1 Tyk2. The assay is described as follows: Co-stimulation assay in lysed whole blood: IFNa (JAK1/TYK2) stimulated STAT1 phosphorylation. In kind it is cell-based. The conditions noted are these: Homo sapiens, 20 min, 100 ng/mL IFNa (with 10 ng/mL GM-CSF), pSTAT by flow cytometry. Here is the method: Example 12: Co-Stimulation Assay in Lysed Whole Blood; JAK2: GM-CSF Stimulated STAT5 Phosphorylation and JAK1/TYK2 Stimulated STAT1 Phosphorylation Assay
Human Blood Lysis Using Abcam's RBC Lysis Buffer
Dilute RBC lysis buffer to 1× in distilled water. Add 2 mL blood to 38 mL of 1×RBC-lysis buffer. Incubate for 15 mins at RT, in dark. Spin at 300 g, 5 mins, to collect the pellet. Re-lyse if necessary. Re-suspend pellet in 5 mL of cRPMI.
Compound and Cytokine Treatment
Aliquot 80 μL of lysed human blood in to wells of 96 deep-well plate. Add 10 μl of (10× conc.) of different concentrations of compounds to all wells except controls (unstained and unstimulated) and mix it with the help of 100 uL multichannel. Add 10 uL of RPMI media in controls. For dilution of compounds and dilution range please refer Appendix. Incubate on water bath or CO2 incubator for 1 hour at 37° C. Add 10 μl of (10× conc.) of cytokine mix (GM-CSF and IFNa) (final conc.10 ng/mL of GM-CSF and 100 ng/mL of IFNa) to each well except unstimulated and unstained controls and incubate further for 20 minutes on water bath at 37° C.
Add 900 μL of prewarmed 1× Fix/Lyse solution (Appendix) and mix it properly using 1000 μl multichannel, incubate further on water bath at 37° C. for 10 minutes (which includes time of addition). Centrifuge at 800×g for 5 minutes at 40° C.; remove 900 uL of supernatant and add 900 μL of 1×PBS. Centrifuge at 800×g for 5 minutes at 40° C., remove 900 μL of supernatant. Wash one more time with 900 μL of PBS (optional) and resuspend pellets in 100 uL of PBS.
Disrupt the pellet by gentle tapping and resuspend in 1000 μL of BD Phosflow Perm Buffer III and incubate plate on ice for 30 minutes. Centrifuge plate at 800×g for 5 minutes at 40° C. Wash two more times with 1000 μL of BD Pharmingen Stain Buffer.
Disrupt the pellet by gentle tapping. Resuspend pellets in 100 uL of Stain Buffer and add 5 μL of pSTAT5_AF488 Ab and 5 uL of pSTAT_PE in all wells except unstained control and mix properly using 200 μl multichannel, incubate overnight at […]. Add 900 μL of wash buffer and centrifuge at 1800 rpm for 3 minutes at 40° C. Wash one more time with 1000 μL of BD Pharmingen Stain Buffer. Finally resuspend the pellet in 300 uL of BD Pharmingen Stain Buffer. Transfer the cells to 96-well v-bottom plate and acquire the cells in Beckman Coulter CytExpert. Acquiring cells in Flow Cytometer: Keep the threshold value to 250 and cell concentration should not exceed 100-500 cells/μL. Acquire at least 5,000-10,000 cells.
RPMI 1640 Complete Medium: RPMI 1640 media+10% FBS.
Cytokine dilution: 1) GM-CSF Stock at 100 ug/mL. Prepare an intermediate dilution of 1 ug/mL by adding 2 uL of stock into 198 uL of cRPMI. Further dilute to 100 ng/mL by adding 100 uL of the intermediate stock to 900 uL of cRPMI. 2) IFNa Stock at 200 ug/mL. Dilute IFNa stock 1:200 by adding 5 uL of stock into the 1000 uL of 100 ng/mL GM-CSF working stock as above to give a combined working stock of 1000 ng/mL of IFNa and 100 ng/mL GM-CSF (10×). Keep it on ice until used.
Lyse/Fix buffer preparation: Dilute 5× Lyse/Fix buffer to 1× using MQ water and keep at 37° C. until used.
BD Phosflow perm buffer III: Keep on ice/fridge.

In the case of `CNc1cc(-c2cn(C(C)C)c3ncccc23)nc2c(NC(=O)N[C@H]3CC[C@H]3O)cnn12` [Compound 57, 1-((1S,2R)-2-hydroxycyclobutyl)-3-(5-(1-isopropyl-1H-pyrrolo[2,3-b]pyridin-3-yl)-7-(methylamino)pyrazolo[1,5-a]pyrimidin-3-yl)urea], the IC50 lay within 1000 to 10000 nM. The value for `CNc1cc(-c2cn(C(C)C)c3ncccc23)nc2c(NC(=O)NC3CC3O)cnn12` (stereo not drawn) [Compound 58, 1-(2-hydroxycyclopropyl)-3-(5-(1-isopropyl-1H-pyrrolo[2,3-b]pyridin-3-yl)-7-(methylamino)pyrazolo[1,5-a]pyrimidin-3-yl)urea] was no less than 10000 nM; that for `CNc1cc(Nc2cccc3c2OCCO3)nc2c(NC(=O)N[C@H]3CC[C@H]3O)cnn12` [Compound 59, 1-(5-((2,3-dihydrobenzo[b][1,4]dioxin-5-yl)amino)-7-(methylamino)pyrazolo[1,5-a]pyrimidin-3-yl)-3-((1S,2R)-2-hydroxycyclobutyl)urea] was 1000 to 10000 nM; that for `CNc1cc(Nc2cc(C)cc(C)c2)nc2c(NC(=O)N[C@@H]3C[C@@H]3F)cnn12` [Compound 60, 1-(5-((3,5-dimethylphenyl)amino)-7-(methylamino)pyrazolo[1,5-a]pyrimidin-3-yl)-3-((1R,2S)-2-fluorocyclopropyl)urea] was no less than 10000 nM.

`CNc1cc(Nc2c(F)c(F)cc3c2OCCO3)nc2c(NC(=O)N[C@@H]3C[C@@H]3F)cnn12` [Compound 61, 1-(5-((6,7-difluoro-2,3-dihydrobenzo[b][1,4]dioxin-5-yl)amino)-7-(methylamino)pyrazolo[1,5-a]pyrimidin-3-yl)-3-((1R,2S)-2-fluorocyclopropyl)urea] yielded an IC50 of no less than 10000 nM. As to `CNC(=O)Nc1cnn2c(NC)cc(Nc3cccc4c3OCCN4C)nc12` [Compound 62, 1-methyl-3-(5-((4-methyl-3,4-dihydro-2H-benzo[b][1,4]oxazin-8-yl)amino)-7-(methylamino)pyrazolo[1,5-a]pyrimidin-3-yl)urea], the IC50 lay in the range of 1000 to 10000 nM. On to `CNC(=O)Nc1cnn2c(NC)cc(Nc3cccc(Cl)c3OC)nc12` [Compound 63, 1-(5-((3-chloro-2-methoxyphenyl)amino)-7-(methylamino)pyrazolo[1,5-a]pyrimidin-3-yl)-3-methylurea], for which the IC50 lay within 1000 to 10000 nM.

`CNC(=O)Nc1cnn2c(NC)cc(Nc3cccc4cccnc34)nc12` [Compound 64, 1-methyl-3-(7-(methylamino)-5-(quinolin-8-ylamino)pyrazolo[1,5-a]pyrimidin-3-yl)urea] came in with an IC50 of less than 1000 nM. In the case of `CNC(=O)Nc1cnn2c(NC)cc(Nc3cc(F)cc4c3OCCO4)nc12` [Compound 65, 1-(5-((7-fluoro-2,3-dihydrobenzo[b][1,4]dioxin-5-yl)amino)-7-(methylamino)pyrazolo[1,5-a]pyrimidin-3-yl)-3-methylurea], the IC50 is less than 1000 nM.

Turning to `CNC(=O)Nc1cnn2c(NC)cc(Nc3c(C)cccc3OC)nc12` [Compound 66, 1-(5-((2-methoxy-6-methylphenyl)amino)-7-(methylamino)pyrazolo[1,5-a]pyrimidin-3-yl)-3-methylurea], the concentration for half-maximal inhibition (IC50) fell in the range of 1000 to 10000 nM. Consider `CNC(=O)Nc1cnn2c(NC)cc(Nc3cc(OC)ccc3OC)nc12` [Compound 67, 1-(5-((2,5-dimethoxyphenyl)amino)-7-(methylamino)pyrazolo[1,5-a]pyrimidin-3-yl)-3-methylurea], for which the IC50 lay within 1000 to 10000 nM. In turn, `CNC(=O)Nc1cnn2c(NC)cc(Nc3cc(C)ccc3OC)nc12` [Compound 68, 1-(5-((2-methoxy-5-methylphenyl)amino)-7-(methylamino)pyrazolo[1,5-a]pyrimidin-3-yl)-3-methylurea] yielded an IC50 of less than 1000 nM.

`CNc1cc(Nc2cc(F)cc3c2OCCO3)nc2c(NC(=O)NC3CC3)cnn12` [Compound 69, 1-cyclopropyl-3-(5-((7-fluoro-2,3-dihydrobenzo[b][1,4]dioxin-5-yl)amino)-7-(methylamino)pyrazolo[1,5-a]pyrimidin-3-yl)urea]: the IC50 was less than 1000 nM. On to `CNC(=O)Nc1cnn2c(NC)cc(Nc3cc(OC)cc(OC)c3)nc12` [Compound 70, 1-(5-((3,5-dimethoxyphenyl)amino)-7-(methylamino)pyrazolo[1,5-a]pyrimidin-3-yl)-3-methylurea], for which the IC50 is less than 1000 nM.

In turn, `CNC(=O)Nc1cnn2c(NC)cc(Nc3ccccc3-c3ncco3)nc12` [Compound 71, 1-methyl-3-(7-(methylamino)-5-((2-(oxazol-2-yl)phenyl)amino)pyrazolo[1,5-a]pyrimidin-3-yl)urea] showed an IC50 of less than 1000 nM. The value for `CNC(=O)Nc1cnn2c(NC)cc(-c3cn(C(C)C)c4ncccc34)nc12` [Compound 72, 1-(5-(1-isopropyl-1H-pyrrolo[2,3-b]pyridin-3-yl)-7-(methylamino)pyrazolo[1,5-a]pyrimidin-3-yl)-3-methylurea] was less than 1000 nM; that for `[2H]C([2H])([2H])Nc1cc(-c2cn(C3CCOCC3)c3ncccc23)nc2c(NC(=O)NC)cnn12` [Compound 73, 1-methyl-3-(7-((methyl-d3)amino)-5-(1-(tetrahydro-2H-pyran-4-yl)-1H-pyrrolo[2,3-b]pyridin-3-yl)pyrazolo[1,5-a]pyrimidin-3-yl)urea] was less than 1000 nM; that for `CNC(=O)Nc1cnn2c(NC)cc(-c3cn(C)c4ncccc34)nc12` [Compound 74, 1-methyl-3-(5-(1-methyl-1H-pyrrolo[2,3-b]pyridin-3-yl)-7-(methylamino)pyrazolo[1,5-a]pyrimidin-3-yl)urea] was 1000 to 10000 nM.

With `[2H]C([2H])([2H])Nc1cc(-c2cn(C3CCOC3)c3ncccc23)nc2c(NC(=O)NC)cnn12` (stereo not drawn) [Compound 75, 1-methyl-3-(7-((methyl-d3)amino)-5-(1-(tetrahydrofuran-3-yl)-1H-pyrrolo[2,3-b]pyridin-3-yl)pyrazolo[1,5-a]pyrimidin-3-yl)urea], the IC50 is less than 1000 nM. The value for `CNC(=O)Nc1cnn2c(NC)cc(Nc3cc(C(F)(F)F)cc4c3OCCO4)nc12` [Compound 76, 1-methyl-3-(7-(methylamino)-5-((7-(trifluoromethyl)-2,3-dihydrobenzo[b][1,4]dioxin-5-yl)amino)pyrazolo[1,5-a]pyrimidin-3-yl)urea] was less than 1000 nM; that for `CNC(=O)Nc1cnn2c(NC)cc(Nc3cc(Cl)cc4c3OCCO4)nc12` [Compound 77, 1-(5-((7-chloro-2,3-dihydrobenzo[b][1,4]dioxin-5-yl)amino)-7-(methylamino)pyrazolo[1,5-a]pyrimidin-3-yl)-3-methylurea] was less than 1000 nM; that for `CNC(=O)Nc1cnn2c(NC)cc(Nc3cc(C)cc4c3OCCO4)nc12` [Compound 78, 1-methyl-3-(5-((7-methyl-2,3-dihydrobenzo[b][1,4]dioxin-5-yl)amino)-7-(methylamino)pyrazolo[1,5-a]pyrimidin-3-yl)urea] was less than 1000 nM. Next, `CNc1cc(Nc2cc(C)cc3c2OCCO3)nc2c(NC(=O)NC3CC3)cnn12` [Compound 79, 1-cyclopropyl-3-(5-((7-methyl-2,3-dihydrobenzo[b][1,4]dioxin-5-yl)amino)-7-(methylamino)pyrazolo[1,5-a]pyrimidin-3-yl)urea]: 1000 to 10000 nM; `CNC(=O)Nc1cnn2c(NC)cc(-c3cn(C4CCOCC4)c4ncccc34)nc12` [Compound 80, 1-methyl-3-(7-(methylamino)-5-(1-(tetrahydro-2H-pyran-4-yl)-1H-pyrrolo[2,3-b]pyridin-3-yl)pyrazolo[1,5-a]pyrimidin-3-yl)urea]: less than 1000 nM.
